Melting point and IC50 data for 5 compounds are collected here from patent US8618098B2, “Inhibitors of bruton's tyrosine kinase” (Roche Palo Alto LLC, priority 2008, dated 2013).

The target in data set [1] is Btk enzyme (His-tagged, full-length) (Homo sapiens (Human), UniProt Q06187). The data set can be described thus: Bruton's Tyrosine Kinase (Btk) Inhibition Assay. The class given is biochemical. As to conditions: 33P filtration capture assay, 100 μM ATP, 30 μM biotinylated peptide substrate. An excerpt: The assay is a capture of radioactive ^33P phosphorylated product through filtration. The interactions of Btk, biotinylated SH2 peptide substrate (Src homology), and ATP lead to phosphorylation of the peptide substrate. Biotinylated product is bound streptavidin sepharose beads. All bound, radiolabeled products are detected by scintillation counter.
Chain of Btk enzyme (His-tagged, full-length) (Q06187 whole entry): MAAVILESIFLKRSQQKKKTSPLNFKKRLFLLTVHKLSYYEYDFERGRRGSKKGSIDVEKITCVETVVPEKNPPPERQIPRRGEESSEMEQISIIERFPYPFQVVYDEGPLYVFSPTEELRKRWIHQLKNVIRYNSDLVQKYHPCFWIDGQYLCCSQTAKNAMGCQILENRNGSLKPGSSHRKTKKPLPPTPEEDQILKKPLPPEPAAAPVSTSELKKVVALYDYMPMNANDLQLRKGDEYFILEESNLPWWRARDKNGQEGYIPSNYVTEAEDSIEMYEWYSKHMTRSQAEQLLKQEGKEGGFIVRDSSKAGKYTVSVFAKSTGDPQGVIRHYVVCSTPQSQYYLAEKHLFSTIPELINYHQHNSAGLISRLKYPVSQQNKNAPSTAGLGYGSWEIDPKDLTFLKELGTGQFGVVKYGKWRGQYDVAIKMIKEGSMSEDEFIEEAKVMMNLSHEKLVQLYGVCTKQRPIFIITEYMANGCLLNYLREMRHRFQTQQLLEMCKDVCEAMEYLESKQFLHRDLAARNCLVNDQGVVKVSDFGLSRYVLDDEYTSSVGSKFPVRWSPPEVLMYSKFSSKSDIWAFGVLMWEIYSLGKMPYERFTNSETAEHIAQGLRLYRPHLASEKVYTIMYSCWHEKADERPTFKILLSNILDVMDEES
Plates assayed are 96-well polypropylene (Greiner) and 96-well 1.2 μm hydrophilic PVDF filter plates (Millipore). Concentrations reported here are final assay concentrations: 10-100 μM compounds in DMSO (Burdick and Jackson), 5-10 nM Btk enzyme (His-tagged, full-length), 30 μM peptide substrate (Biotin-Aca-[…]-NH2), 100 μM ATP (Sigma), 8 mM imidazole (Sigma, pH 7.2), 8 mM glycerol-2-phosphate (Sigma), 200 μM EGTA (Roche Diagnostics), 1 mM MnCl2 (Sigma), 20 mM MgCl2 (Sigma), 0.1 mg/ml BSA (Sigma), 2 mM DTT (Sigma), 1 μCi ^33P ATP (Amersham), 20% streptavidin sepharose beads (Amersham), 50 mM EDTA (Gibco), 2 M NaCl (Gibco), 2 M NaCl w/1% phosphoric acid (Gibco), microscint-20 (Perkin Elmer).
IC50 determinations are calculated from 10 data points per compound utilizing data produced from a standard 96-well plate assay template. One control compound and seven unknown inhibitors were tested on each plate and each plate was run twice. Typically, compounds were diluted in half-log starting at 100 μM and ending at 3 nM. The control compound was staurosporine. Background was counted in the absence of peptide substrate. Total activity was determined in the presence of peptide substrate. The following protocol was used to determine Btk inhibition.
1) Sample preparation: The test compounds were diluted at half-log increments in assay buffer (imidazole, glycerol-2-phosphate, EGTA, MnCl2, MgCl2, BSA).
a.) rinse beads by centrifuging at 500 g
b.) reconstitute the beads with PBS and EDTA to produce a 20% bead slurry
3) Pre-incubate reaction mix without substrate (assay buffer, DTT, ATP, ^33P ATP) and mix with substrate (assay buffer, DTT, ATP, ^33P ATP, peptide substrate) 30° C. for 15 min.
4) To start assay, pre-incubate 10 μL Btk in enzyme buffer (imidazole, glycerol-2-phosphate, BSA) and 10 μL of test compounds for 10 min at RT.
5) Add 30 μL reaction mixture without or with substrate to Btk and compounds.
6) Incubate 50 μL total assay mix for 30 min at 30° C.
7) Transfer 40 μL of assay to 150 μL bead slurry in filter plate to stop reaction.
8) Wash filter plate after 30 min, with following steps
b. 3×250 μL NaCl containing 1% phosphoric acid
9) Dry plate for 1 h at 65° C. or overnight at RT
10) Add 50 μL microscint-20 and count ^33P cpm on scintillation counter. […]

On to `CNC(=O)Nc1cc(-c2cccc(N3CNc4cc(N(C)C)ccc4C3=O)c2C)cn(C)c1=O` [II-2, 1-{5-[3-(7-Dimethylamino-4-oxo-1,4-dihydro-2H-quinazolin-3-yl)-2-methyl-phenyl]-1-methyl-2-oxo-1,2-dihydro-pyridin-3-yl}-3-methyl-urea], for which the melting point (in general, the temperature, or range, at which the solid turns liquid) fell in the range of 218.5 to 223.8 °C.

In turn, `Cc1c(-c2cc(Nc3ccc(C(=O)N4CCOCC4)cn3)c(=O)n(C)c2)cccc1N1CNc2cc(N(C)C)ccc2C1=O` [II-1, 7-Dimethylamino-3-(2-methyl-3-{1-methyl-5-[5-(morpholin-4-carbonyl)-pyridin-2-ylamino]-6-oxo-1,6-dihydro-pyridin-3-yl}-phenyl)-2,3-dihydro-1H-quinazolin-4-one] showed a melting point of 247.1 to 250.9 °C. Moreover, the 50% inhibitory concentration (IC50) – broadly, the midpoint of a concentration-inhibition curve – in data set [1] came to 0.022 µM.

In data set [1], `CNC(=O)Nc1cc(-c2cccc(-n3cnc4cc(C(C)(C)C)ccc4c3=O)c2C)cn(C)c1=O` [Compound I-1, 1-{5-[3-(7-tert-Butyl-4-oxo-4H-quinazolin-3-yl)-2-methyl-phenyl]-1-methyl-2-oxo-1,2-dihydro-pyridin-3-yl}-3-methyl urea] gave a concentration for half-maximal inhibition (IC50) of 0.112 µM.

On to `Cc1c(-c2cc(Nc3ccc(C(=O)N4CCOCC4)cn3)c(=O)n(C)c2)cccc1-n1ncc2cc(N(C)C)ccc2c1=O` [III-1, 6-Dimethylamino-2-(2-methyl-3-{1-methyl-5-[5-(morpholine-4-carbonyl)-pyridin-2-ylamino]-6-oxo-1,6-dihydro-pyridin-3-yl}-phenyl)-2H-phthalazin-1-one], for which, in data set [1], the IC50 came to 0.124 µM.

As to `Cc1c(-c2cc(Nc3ccc(C(=O)N4CCOCC4)cn3)c(=O)n(C)c2)cccc1N1CNc2cc(C(C)(C)O)ccc2C1=O` [II-3, 7-(1-Hydroxy-1-methyl-ethyl)-3-(2-methyl-3-{1-methyl-5-[5-(morpholine-4-carbonyl)-pyridin-2-ylamino]-6-oxo-1,6-dihydro-pyridin-3-yl}-phenyl)-2,3-dihydro-1H-quinazolin-4-one], the melting point fell in the range of 196 to 197 °C. In data set [1], this compound came in with a half-maximal inhibitory concentration (IC50) of 0.018 µM.
